Data as given in ChEMBL document CHEMBL1201862, “PubChem BioAssay data set” (2004).
The source made the active and inactive calls.

How the values were obtained:
[1] = biological target: T1, Cytochrome P450 1A2 (Homo sapiens, UniProt P05177);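 also: PubChem cytochrome P450 panel assay, CYP1A2 panel member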
T1 sequence (P05177 whole entry): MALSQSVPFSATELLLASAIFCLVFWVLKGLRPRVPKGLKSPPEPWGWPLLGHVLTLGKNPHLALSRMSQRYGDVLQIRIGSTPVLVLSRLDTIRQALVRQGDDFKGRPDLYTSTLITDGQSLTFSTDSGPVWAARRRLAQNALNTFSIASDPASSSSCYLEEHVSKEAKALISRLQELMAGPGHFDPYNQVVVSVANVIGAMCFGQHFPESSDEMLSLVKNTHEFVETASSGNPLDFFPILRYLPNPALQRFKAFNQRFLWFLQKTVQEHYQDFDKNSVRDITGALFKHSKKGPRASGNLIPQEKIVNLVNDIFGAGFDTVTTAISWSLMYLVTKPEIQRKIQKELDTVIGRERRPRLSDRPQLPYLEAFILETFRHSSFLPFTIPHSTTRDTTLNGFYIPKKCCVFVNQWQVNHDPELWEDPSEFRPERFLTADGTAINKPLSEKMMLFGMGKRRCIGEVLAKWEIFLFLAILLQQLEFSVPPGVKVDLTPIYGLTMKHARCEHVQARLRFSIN

[2] = Luminescence Cell-Based Dose Retest to Confirm Inhibitors of Cancer Stem Cells. [Related pubchem assays (depositor defined):AID2717, AID2721]; format: functional; details: Homo sapiens
[3] = biological target: Cytochrome P450 3A4 (Homo sapiens, UniProt P08684);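 also: CYP3A4 tested as one member of a cytochrome P450 panel screen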
Sequence of Cytochrome P450 3A4 (P08684 whole entry): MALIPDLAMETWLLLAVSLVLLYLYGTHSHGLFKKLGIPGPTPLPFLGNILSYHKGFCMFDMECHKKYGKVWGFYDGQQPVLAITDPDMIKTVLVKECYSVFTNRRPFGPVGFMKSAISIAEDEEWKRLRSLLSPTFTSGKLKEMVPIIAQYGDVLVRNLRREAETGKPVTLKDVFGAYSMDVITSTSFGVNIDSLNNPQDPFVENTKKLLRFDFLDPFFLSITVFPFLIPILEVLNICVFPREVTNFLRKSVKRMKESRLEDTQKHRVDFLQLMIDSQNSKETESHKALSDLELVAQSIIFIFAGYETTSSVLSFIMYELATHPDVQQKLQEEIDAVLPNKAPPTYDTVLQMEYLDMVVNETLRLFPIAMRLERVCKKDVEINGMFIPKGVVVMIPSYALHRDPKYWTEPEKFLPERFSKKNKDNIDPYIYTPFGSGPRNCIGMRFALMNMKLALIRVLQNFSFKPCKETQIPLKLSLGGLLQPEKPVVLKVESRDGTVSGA

[4] = biological target: Cytochrome P450 2C19 (Homo sapiens, UniProt P33261); experiment: Cytochrome panel assay with activity outcomes. Panel member name: p450-cyp2c19 Compounds with AC50 equal or less than 10 uM are considered active; format: functional
Sequence of Cytochrome P450 2C19 (P33261 whole entry): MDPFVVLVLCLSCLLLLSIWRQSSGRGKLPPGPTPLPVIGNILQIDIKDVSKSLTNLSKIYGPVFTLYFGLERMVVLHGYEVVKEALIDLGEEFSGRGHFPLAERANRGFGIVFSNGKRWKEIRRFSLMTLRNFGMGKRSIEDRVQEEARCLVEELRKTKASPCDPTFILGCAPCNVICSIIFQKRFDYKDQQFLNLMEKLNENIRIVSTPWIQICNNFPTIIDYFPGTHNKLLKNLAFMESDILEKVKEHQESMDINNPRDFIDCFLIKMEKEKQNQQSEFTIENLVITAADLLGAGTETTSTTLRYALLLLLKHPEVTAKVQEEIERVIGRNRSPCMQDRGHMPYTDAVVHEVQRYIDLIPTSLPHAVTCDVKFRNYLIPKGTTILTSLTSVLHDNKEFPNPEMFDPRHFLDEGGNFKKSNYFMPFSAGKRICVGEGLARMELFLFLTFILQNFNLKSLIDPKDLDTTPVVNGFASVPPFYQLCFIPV

[5] = biological target: Cytochrome P450 2D6 (Homo sapiens, UniProt P10635);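 also: CYP2D6 member of a cytochrome P450 panel assay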
Sequence of Cytochrome P450 2D6 (P10635 whole entry): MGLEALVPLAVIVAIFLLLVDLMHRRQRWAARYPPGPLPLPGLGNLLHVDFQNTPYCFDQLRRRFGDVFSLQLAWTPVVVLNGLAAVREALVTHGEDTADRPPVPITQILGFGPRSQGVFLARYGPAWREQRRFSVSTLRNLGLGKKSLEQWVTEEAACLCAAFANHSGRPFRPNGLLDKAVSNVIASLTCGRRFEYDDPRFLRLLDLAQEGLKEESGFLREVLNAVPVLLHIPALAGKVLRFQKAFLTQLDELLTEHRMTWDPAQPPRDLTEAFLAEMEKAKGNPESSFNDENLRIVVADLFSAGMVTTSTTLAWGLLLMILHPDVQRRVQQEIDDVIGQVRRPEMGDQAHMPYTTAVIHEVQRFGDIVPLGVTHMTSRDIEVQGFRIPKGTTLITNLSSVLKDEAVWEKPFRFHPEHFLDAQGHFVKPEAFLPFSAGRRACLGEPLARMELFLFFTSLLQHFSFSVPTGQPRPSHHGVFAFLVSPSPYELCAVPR

[6] = biological target: Cytochrome P450 2C9 (Homo sapiens, UniProt P11712)
Sequence of Cytochrome P450 2C9 (P11712 whole entry): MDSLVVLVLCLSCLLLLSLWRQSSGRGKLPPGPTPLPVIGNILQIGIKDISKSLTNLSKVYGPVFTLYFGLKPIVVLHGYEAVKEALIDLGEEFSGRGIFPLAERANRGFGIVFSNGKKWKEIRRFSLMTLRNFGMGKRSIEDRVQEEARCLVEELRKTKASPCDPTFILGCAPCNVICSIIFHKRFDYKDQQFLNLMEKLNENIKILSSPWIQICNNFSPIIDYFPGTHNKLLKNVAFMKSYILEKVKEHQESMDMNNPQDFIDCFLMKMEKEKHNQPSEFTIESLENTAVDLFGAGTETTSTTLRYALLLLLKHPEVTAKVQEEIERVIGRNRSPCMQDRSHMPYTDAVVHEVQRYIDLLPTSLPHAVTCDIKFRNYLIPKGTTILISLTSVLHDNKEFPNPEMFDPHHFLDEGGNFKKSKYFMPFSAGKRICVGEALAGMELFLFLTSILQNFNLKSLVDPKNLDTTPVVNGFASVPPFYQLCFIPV

[7] = tested on: Streptococcus sp. 'group A'; experiment: Streptococcus pyogenes SK(-)GAS viability under kanamycin – luminescence, BacTiterGlo, confirmation, counter-screen for streptokinase expression inhibitor project, dose response (AID 1900); format: functional, organism-based
[8] = tested on: Streptococcus; experiment: GAS UMAA2166 growth inhibition – luminescence, BacTiterGlo, counter-screen for streptokinase expression inhibitor project, dose response (AID 1915); format: functional, organism-based;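 also: potency for reduction of bacterial viability or growth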
[9] = biological target: T2, Streptokinase A (Streptococcus pyogenes serotype M1, UniProt P10520); experiment: viability-normalized secreted streptokinase activity reduction – plasminogen activation absorbance, OD405, dose response (AID 1914); format: functional, Streptococcus pyogenes M1 GAS;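 also: secreted streptokinase activity via plasminogen activation per viability signal from cell pellet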
T2 sequence (P10520 whole entry): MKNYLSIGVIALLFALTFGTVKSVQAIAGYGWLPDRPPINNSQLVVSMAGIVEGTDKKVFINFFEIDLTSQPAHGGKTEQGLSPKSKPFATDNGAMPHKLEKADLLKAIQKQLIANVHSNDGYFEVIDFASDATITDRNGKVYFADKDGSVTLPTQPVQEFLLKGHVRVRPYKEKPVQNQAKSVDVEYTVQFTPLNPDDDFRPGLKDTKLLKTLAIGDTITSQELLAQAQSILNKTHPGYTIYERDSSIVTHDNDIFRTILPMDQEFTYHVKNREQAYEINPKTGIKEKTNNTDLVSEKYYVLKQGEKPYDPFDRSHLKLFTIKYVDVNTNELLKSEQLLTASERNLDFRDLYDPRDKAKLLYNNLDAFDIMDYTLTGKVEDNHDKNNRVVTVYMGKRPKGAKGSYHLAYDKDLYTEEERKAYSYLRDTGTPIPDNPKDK

[10] = NIH3T3 cell viability loss – ATP luminescence, mouse fibroblasts, counter-screen, dose response (AID 2010); format: functional, cell-based;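 also: cells exposed to compound for about 90 hours before reading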
[11] = Trypanosoma cruzi growth suppression in host cells – NIH3T3 host cells, beta-gal luminescence, confirmation (AID 2044); format: functional, cell-based;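 also: intracellular parasites grown in NIH/3T3 mouse fibroblasts as host cells; luminescent beta-galactosidase reporter signal from transgenic T. cruzi replicating inside host cells; inhibitors lower the luminescence signal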

N[C@@H](Cn1cc(F)c(=O)[nH]c1=O)C(=O)O
AC50 [1]: 31.6 µM (inconclusive)

O=C(c1cnn2c1NC(c1ccc(Br)cc1)CC2C(F)(F)F)N1CCN2CCCC2C1 (stereo unspecified)
AC50 [2]: 1.81 µM (active)

Cn1cc(-c2nc3cncnc3n(Cc3ccccc3Cl)c2=O)c2ccccc21
AC50 [3]: 7.94 µM (inconclusive) | AC50 [1]: 3.16 µM (inconclusive)

C=CCn1c(SCc2ccccc2)nc2scc(-c3ccc(C)o3)c2c1=O
AC50 [1]: 1.58 µM (inconclusive)

CCCCCC1=C2CNC(CC(C)C)(C(=O)OC)C=C2C(C)C1=O (stereo unspecified)
AC50 ([4]; read-out: AC50): 6.31 µM (inconclusive) | AC50 [3]: 15.8 µM (inconclusive) | AC50 [1]: 25.1 µM (inconclusive)

ON(CCc1ccncc1)Cc1ccccc1
AC50 [5]: 6.31 µM (inconclusive)

Cc1sc(NC(=O)c2ccco2)c(C(c2cccnc2)N2CCN(C)CC2)c1C (stereo unspecified)
AC50 [5]: 12.6 µM (inconclusive) | AC50 [6]: 2.82 µM (inconclusive)

COC(=O)[C@@]1(Cc2ccccc2)[C@H]2c3cc(C(=O)N4CCCC4)n(Cc4nc5ccccc5[nH]4)c3C[C@H]2CN1C(=O)c1ccccc1
AC50 [1]: 12.6 µM (inconclusive)

COCC(=O)N1CCC2(CC1)CN(Cc1ccccc1OC)C2
AC50 ([4]; read-out: AC50): 39.8 µM (inconclusive)

CCOC(=O)N1CCC(NC(=O)C2CCN(S(=O)(=O)N3CCCC3)CC2)CC1
AC50 [4]: inconclusive

Cc1ccc2c(c1)/C(=C1\SC(N(C)c3ccc(O)cc3)=NC1=O)C(=O)N2
EC50 [7]: 6.59 µM (active) | EC50 [8]: 16.6 µM (active) | EC50 [9]: > 150 µM (not active)

O=C(Nc1cccc(Cl)c1N1CCCC1)c1cc2ccccc2o1
EC50 [7]: 8.81 µM (active) | EC50 [8]: 20.5 µM (active) | EC50 [9]: 14.3 µM (active)

CNC(=O)NC(=O)CSc1nnc(-c2ccco2)n1Cc1ccccc1
AC50 ([4]; read-out: AC50): 35.5 µM (inconclusive) | AC50 [3]: 22.4 µM (inconclusive)

N=C1/C(=C\c2ccc(OC(=O)c3ccccc3Cl)cc2)C(=O)N=C2SC(N3CCOCC3)=NN12
EC50 [7]: 37.8 µM (active) | EC50 [8]: > 150 µM (not active) | EC50 [9]: > 150 µM (not active)

CC(=O)NCCNc1ncnc2ccc(-c3ccccc3Cl)cc12
AC50 ([4]; read-out: AC50): 20 µM (inconclusive)

O=C(/C=C\C=C/c1ccc2c(c1)OCO2)N1CCCCC1
AC50 [5]: 12.6 µM (inconclusive)

O=C(O)CCSc1ccc([N+](=O)[O-])cc1[N+](=O)[O-]
EC50 [8]: > 150 µM (not active) | EC50 [9]: > 150 µM (not active)

CCOc1ccc(NC(=O)N2CCC(C(N)=O)(N3CCCCC3)CC2)cc1
AC50 ([4]; read-out: AC50): 8.91 µM (inconclusive)

Cc1cc2nc(O)c([C@H](C)C(=O)c3ccc(Cl)cc3)nc2cc1C
AC50 ([4]; read-out: AC50): 0.0794 µM (inconclusive) | AC50 [1]: 0.501 µM (inconclusive)

COc1cccc(-c2noc(-c3cccnc3)n2)c1
AC50 [5]: 20 µM (inconclusive)

COc1cccc(-c2coc3cc4oc(=O)c(CCC(=O)O)c(C)c4cc23)c1
EC50 [7]: 5.51 µM (active) | EC50 [8]: 48.5 µM (active) | EC50 [9]: > 150 µM (not active)

Cc1cc(NC(=O)CSc2nc3ccsc3c(=O)n2Cc2ccccn2)[nH]n1
AC50 [1]: 6.31 µM (inconclusive)

O=C1[C@@H]2[C@@H](C(=O)N1c1ccc(OCc3ccccc3)cc1)[C@@H]1c3ccccc3[C@@H]2[n+]2ccccc21
AC50 [5]: 3.98 µM (inconclusive)

COc1ccc(Cc2nnc(NC(=O)Cn3cnc4c3c(=O)n(C)c(=O)n4C)s2)cc1OC
AC50 ([4]; read-out: AC50): 28.2 µM (inconclusive) | AC50 [6]: 20 µM (inconclusive)

COc1ccccc1C(=O)NNC(=O)C(=O)Nc1cccc(Cl)c1C
EC50 [7]: 3.78 µM (active) | EC50 [8]: 16 µM (active) | EC50 [9]: > 150 µM (not active)

COc1ccc(-c2sc3cc(OC)c(OC)cc3c2C#CC2(O)CCCCC2)cc1
AC50 [2]: 1.73 µM (active)

O=C(/C=C/c1ccc(Br)cc1)NC1CCCCCC1
AC50 [1]: 2 µM (inconclusive)

O=C(O)CCCN1C(=O)/C(=C/c2cn(-c3ccccc3)nc2-c2cccs2)SC1=S
EC50 [7]: 5.9 µM (active) | EC50 [8]: 7.28 µM (active) | EC50 [9]: > 150 µM (not active)

O=C1[C@H]2[C@H]3[C@H](O)[C@H](O)C/C(=N/OCc4ccccc4)[C@H]3CC[C@@H]2C(=O)N1Cc1ccc2c(c1)OCO2
AC50 ([4]; read-out: AC50): 2 µM (inconclusive)

O=C(c1csnn1)N1CCC2(CCCN(Cc3cc(C(F)(F)F)cc(C(F)(F)F)c3)C2)CC1
AC50 [6]: 39.8 µM (inconclusive) | AC50 [1]: 12.6 µM (inconclusive)

COC(=O)[C@@]1(Cc2ccc(OC)cc2)[C@H]2c3cc(C(=O)N4CCCC4)n(CCCNc4ncc(C(F)(F)F)cc4Cl)c3C[C@H]2CN1C(=O)c1ccccc1
AC50 [3]: 1.26 µM (inconclusive) | AC50 [1]: 31.6 µM (inconclusive)

CC(C)CN=C(S)NC1CC2CCCC(C1)N2Cc1ccco1 (stereo unspecified)
AC50 ([4]; read-out: AC50): 39.8 µM (inconclusive)

COCOc1ccc(Br)cc1C(=O)[C@H]1O[C@H]1c1cccc(OC)c1
AC50 [5]: 3.16 µM (inconclusive)

S=c1[nH]cnc2scc(-c3ccc(Cl)cc3)c12
EC50 [9]: > 150 µM (not active)

CC1CCN(c2ccccc2NC(=O)c2ccc(Br)o2)CC1
EC50 [7]: 5.4 µM (active) | EC50 [8]: 10.3 µM (active) | EC50 [9]: 43.6 µM (active)

O=C(Nc1ccc(-c2csc(-c3ccccc3)n2)cc1)c1ccccc1Cl
EC50 [10]: 9.89 µM (active) | AC50 [1]: 0.0708 µM (inconclusive) | EC50 [11]: 1.57 µM (active)

CCN(CC)c1cc(C)c2cc(NC(=O)CNC(C)=O)ccc2n1
AC50 [4]: inconclusive | AC50 [6]: 0.891 µM (inconclusive)

O=[N+]([O-])c1ccccc1-c1ccc(C(=S)N2CCN(c3ccccc3)CC2)o1
AC50 [2]: > 195 µM (inactive)

COc1ccc(C2C3=C(CC(C)(C)CC3=O)Oc3ncn(CC(C)C)c(=N)c32)cc1 (stereo unspecified)
AC50 ([4]; read-out: AC50): 39.8 µM (inconclusive) | AC50 [6]: 39.8 µM (inconclusive)

COc1cc(OC)cc(C(=O)NCCNc2nc3cc(C)cc(C)c3cc2C#N)c1
AC50 [2]: > 195 µM (inactive)

O=C(Nc1ncc(Cc2cccc([N+](=O)[O-])c2)s1)c1ccco1
AC50 [2]: 1.4 µM (active)

C[C@@H](CSc1ccc(Br)cc1)CN1CC[C@H](NC(=O)OCc2ccccc2)CCC1=O
AC50 [2]: 5.92 µM (active)

CCC(COC(=O)NC)NC(=O)Oc1ccccc1 (stereo unspecified)
AC50 [1]: 39.8 µM (inconclusive)

COc1ccc(-c2sc3cc4c(cc3c2-c2ccc(OCCN3CCOCC3)cc2)OCO4)cc1
AC50 [2]: 0.29 µM (active)

COc1cc(OC)cc(-c2sc3ccc(OC)cc3c2C#CCO)c1
AC50 [2]: 4.83 µM (active)

CC#CCCCC(=O)Nc1cc(OC)nc(OC)n1
AC50 [5]: 15.8 µM (inconclusive)

CCOC(=O)Nc1ccc(C)cc1NC(=O)OCC
AC50 ([4]; read-out: AC50): 14.1 µM (inconclusive) | AC50 [6]: 25.1 µM (inconclusive)

Cc1cc(C(C)(C)C)c(OC(=O)[C@@H]2OC(c3ccccc3)=C[C@H]2c2ccccc2)c(C(C)(C)C)c1
AC50 [2]: 5.03 µM (active)

COc1ccc(CCNC(=O)COC(=O)c2cnc(C)cn2)cc1
AC50 [3]: 22.4 µM (inconclusive) | AC50 [6]: 0.00562 µM (inconclusive) | AC50 [1]: 25.1 µM (inconclusive)

CCCS(=O)(=O)N1CCCC(C(=O)N2CCOCC2)C1 (stereo unspecified)
AC50 [1]: 5.01 µM (inconclusive)

CCNS(=O)(=O)c1ccc(NS(C)(=O)=O)cc1
AC50 [4]: inconclusive | AC50 [6]: 7.94 µM (inconclusive)

O=C(Nc1ccc(Cl)cc1C(=O)c1ccccc1Cl)c1ccco1
AC50 [1]: 2.51 µM (inconclusive)

C/C(=N/NC(=O)c1ccc(-c2ccccc2)cc1)c1cc(O)cc(O)c1
AC50 [2]: 2.97 µM (active)

C/C(=N\NS(=O)(=O)c1ccc(C)cc1)c1ccc(C)o1
EC50 [7]: > 150 µM (not active) | EC50 [8]: > 150 µM (not active) | EC50 [9]: > 150 µM (not active)

CO/N=C(/CNC(=O)c1cccc(Cl)c1)c1ccc(Cl)cc1
AC50 [5]: 25.1 µM (inconclusive)

CC(C)CN(C)c1nc(N)c(C(=O)N=C(N)N)nc1Cl [5-(N-METHYL-N-ISOBUTYL)AMILORIDE]
AC50 ([4]; read-out: AC50): 31.6 µM (inconclusive)

CN1CCc2cc(Cl)c(O)cc2[C@@H](c2ccccc2)C1 [SCH-23390]
AC50 [1]: 39.8 µM (inconclusive)
